Measured values reported in patent US20260083122A1, “METHOD AND AGENT FOR INACTIVATING BACTERIA OR VIRUSES, AND ANTIVIRAL BASE MATERIAL USING SAME” (NISSAN MOTOR CO., LTD., priority 2022, published 2026).
Like-named read-outs stand apart in the source and are kept apart here.

Experiments:
[1] = biological target: T1, S-RBD-His(WT) (SARS-CoV-2 Spike Protein (RBD)) (Severe acute respiratory syndrome coronavirus 2, UniProt P0DTC2)
[2] = system: feline coronavirus (FCov (VR-989)); assay type: cell-based; conditions: FCoV dilution series incubated with compound at room temperature for 2 hours; CRFK cells, 2 days culture
[3] = system: feline coronavirus (FCov (VR-989)); assay: Antiviral effect of AZADO (CPE method; incubation at 37° C.); assay type: cell-based
ovalbumin (OVA) = biological target: T2, ovalbumin (OVA) (Gallus gallus, UniProt P01012); assay: Degradation activity on ovalbumin (electrophoresis, CBB staining); assay type: biochemical; conditions: room temperature for 24 hours
T2 sequence (P01012 1-386): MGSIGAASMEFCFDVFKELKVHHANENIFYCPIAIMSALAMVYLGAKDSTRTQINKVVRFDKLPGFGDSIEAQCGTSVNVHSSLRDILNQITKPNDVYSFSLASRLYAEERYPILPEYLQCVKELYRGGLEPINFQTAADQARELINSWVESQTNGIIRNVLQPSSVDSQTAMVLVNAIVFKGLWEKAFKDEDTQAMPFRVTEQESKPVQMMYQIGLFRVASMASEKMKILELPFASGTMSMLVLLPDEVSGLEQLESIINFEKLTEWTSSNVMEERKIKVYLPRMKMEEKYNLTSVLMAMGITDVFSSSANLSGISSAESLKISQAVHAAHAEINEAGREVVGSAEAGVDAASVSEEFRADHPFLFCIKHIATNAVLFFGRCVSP

[4] = system: feline coronavirus (FCov (VR-989)); assay type: cell-based; conditions: for Positive rate (CPE) / Number of wells when CPE is positive: 3 days culture
[5] = system: feline coronavirus (FCov (VR-989)); assay: Cell viability by WST-8 method in the 25° C. incubation experiment; assay type: cell-based; conditions: cells cultured for 3 days after sample addition and medium replacement; virus alone about 50%
[6] = system: Escherichia coli (DH5a strain; AMP+); assay: Measurement of minimum inhibitory concentration (MIC) against Escherichia coli (colony count); assay type: cell-based; conditions: for CFU relative value: Comparative Example (0 mM) is 100
Description: First, Escherichia coli (DH5a strain; AMP+) was cultured with shaking in LB medium for 20 hours, and the obtained culture solution was used as an Escherichia coli stock solution. Then, the Escherichia coli stock solution was diluted 1000 times with PBS to obtain a diluted solution. In addition, this diluted solution was used as a comparative example.
On the other hand, AZADO^+NO3^− was added to the diluted solution obtained above to have a final concentration of 1 μM, 10 μM, 100 μM, 1 mM, or 10 mM, respectively, and the obtained mixture was allowed to stand at room temperature for 15 minutes. Thereafter, for the purpose of deactivating AZADO^+NO3^−, the diluted solution was further diluted 10 times using LB medium as a reaction stop solution. Finally, 25 μL of the reaction solution obtained in this manner was applied to LB agar medium, and cultured at 37° C. for 1 day. Then, the number of colonies on the agar medium after culture was counted, and the colony forming unit (CFU/mL) per mL was calculated. In addition, the “CFU relative value” described in Table 3 is a relative value when the value of the colony forming unit of Comparative Example is 100.

[7] = biological target: T1, S-RBD-His(WT) (SARS-CoV-2 Spike Protein (RBD)); remark: listed apart in the source
[8] = Standard redox potential by cyclic voltammetry; assay type: physicochemical; conditions: reference electrode Ag/Ag^+, sweep rate 50 mV/s
Description: The standard redox potential is measured by cyclic voltammetry (CV) under a temperature condition of 25° C. At this time, the measurement is performed by a three-electrode method using a glassy carbon electrode (inner diameter: 3 mm) as a working electrode, a reference electrode (Ag/Ag^+), and a counter electrode (platinum wire), and the sweep rate of the potential is 50 mV/s. It is noted that the hydroxyamine forms of the compounds of the present invention are generally unstable and rapidly oxidized into nitroxyl radical forms. Thus, the value of the standard redox potential measured by the above method is the value between the nitroxyl radical form and the oxoammonium form.
In the cyclic voltammogram shown in FIG. 1, the cyclic voltammogram was stably maintained even after repeating 100 or more cycles of measurement, and thus it is observed that the compound of the present aspect has very high durability as an oxidizing agent.

[9] = system: Staphylococcus aureus subsp. aureus NBRC 12732
[10] = system: Escherichia coli ATCC 43895, serotype 0157:H7
[11] = system: Penicillium citrinum (NBRC 6352)

CC(=O)NC1CC(C)(C)[N+](=O)C(C)(C)C1.F[B-](F)(F)F [4-AcNH-TEMPO^+BF4^−]
activity compared among the compounds (peak shift, MFI) [1]: almost equally strong
antiviral activity (MFI) on extended treatment time [1]: showed higher antiviral activity

O=[N+]([O-])[O-].O=[N+]1C2CC3CC(C2)CC1C3 [AZADO-Oxo]
cell viability (WST-8 method) [2]: recovery of cell viability decreased by virus addition was observed
logTCID50 ([3]; AZADO-Oxo 2 mM added, 37° C. 2 hours (no AZADO-Oxo: 5.2)): 2.4
TCID50 ([3]; AZADO-Oxo 2 mM added, 37° C. 2 hours (no AZADO-Oxo: 142262)): 253
viral load reduced to (fraction) ([3]; AZADO-Oxo 2 mM, 37° C. 2 hours): about 1/1000
Δ log TCID50 ([3]; AZADO-Oxo 2 mM, 37° C. 2 hours, 5.2-2.4): 2.8
Positive rate (CPE) ([3]; AZADO-Oxo 2 mM, 37° C. 2 hours, viral load 10^−1): 0%
Number of wells when CPE is positive ([3]; AZADO-Oxo 2 mM, 37° C. 2 hours, viral load 10^−1, 8 wells): 0
Positive rate (CPE) ([3]; AZADO-Oxo 2 mM, 37° C. 2 hours, viral load 10^−2): 0%
Number of wells when CPE is positive ([3]; AZADO-Oxo 2 mM, 37° C. 2 hours, viral load 10^−2, 8 wells): 0
Positive rate (CPE) ([3]; AZADO-Oxo 2 mM, 37° C. 2 hours, viral load 10^−3): 0%
Number of wells when CPE is positive ([3]; AZADO-Oxo 2 mM, 37° C. 2 hours, viral load 10^−3, 8 wells): 0
Positive rate (CPE) ([3]; AZADO-Oxo 2 mM, 37° C. 2 hours, viral load 10^−4): 0%
Number of wells when CPE is positive ([3]; AZADO-Oxo 2 mM, 37° C. 2 hours, viral load 10^−4, 8 wells): 0
Positive rate (CPE) ([3]; AZADO-Oxo 2 mM, 37° C. 2 hours, viral load 10^−5): 0%
Number of wells when CPE is positive ([3]; AZADO-Oxo 2 mM, 37° C. 2 hours, viral load 10^−5, 7 wells): 0
Positive rate (CPE) ([3]; AZADO-Oxo 2 mM, 37° C. 2 hours, viral load (relative value) 1): 0%
Number of wells when CPE is positive ([3]; AZADO-Oxo 2 mM, 37° C. 2 hours, viral load (relative value) 1, 7 wells): 0
band of OVA in supernatant (CBB staining) (ovalbumin (OVA); 1 mg catalyst support or 3 μL of 100 mM AZADO-Oxo): almost eliminated
band of OVA in supernatant (CBB staining), unsupported AZADO (ovalbumin (OVA); 2.5 μL of 100 mM AZADO-Oxo, with or without 2.5 μL of 100 mM cocatalyst): elimination of a band of OVA (protein degradation activity) was confirmed
change of cell form to a round shape by virus (microscope) ([4]; 48 hours after the addition of the sample solution, 25° C. incubation): this form change is suppressed
logTCID50 ([4]; AZADO-Oxo added, 25° C. incubation (no AZADO-Oxo: 5.2)): 2.4
TCID50 ([4]; AZADO-Oxo added, 25° C. incubation (no AZADO-Oxo: 142262)): 253
Positive rate (CPE) ([4]; AZADO-Oxo added, 25° C. incubation, viral load 10^−1): 0%
Number of wells when CPE is positive ([4]; AZADO-Oxo added, 25° C. incubation, viral load 10^−1, 8 wells): 0
Positive rate (CPE) ([4]; AZADO-Oxo added, 25° C. incubation, viral load 10^−2): 0%
Number of wells when CPE is positive ([4]; AZADO-Oxo added, 25° C. incubation, viral load 10^−2, 8 wells): 0
Positive rate (CPE) ([4]; AZADO-Oxo added, 25° C. incubation, viral load 10^−3): 0%
Number of wells when CPE is positive ([4]; AZADO-Oxo added, 25° C. incubation, viral load 10^−3, 8 wells): 0
Positive rate (CPE) ([4]; AZADO-Oxo added, 25° C. incubation, viral load 10^−4): 0%
Number of wells when CPE is positive ([4]; AZADO-Oxo added, 25° C. incubation, viral load 10^−4, 8 wells): 0
Positive rate (CPE) ([4]; AZADO-Oxo added, 25° C. incubation, viral load 10^−5): 0%
Number of wells when CPE is positive ([4]; AZADO-Oxo added, 25° C. incubation, viral load 10^−5, 7 wells): 0
Positive rate (CPE) ([4]; AZADO-Oxo added, 25° C. incubation, viral load (relative value) 1): 0%
Number of wells when CPE is positive ([4]; AZADO-Oxo added, 25° C. incubation, viral load (relative value) 1, 7 wells): 0
cell viability (WST-8 method) [5]: recovered the cell viability to the same level as the blank
final concentration at which a remarkable inactivation effect was observed ([6]; Escherichia coli, 15 minutes contact): ≥ 100 PM
colony forming unit ([6]; final concentration 0.001 mM (0 mM: 1.21 × 10^8)): 1.28 × 10^8 CFU/mL
CFU relative value ([6]; final concentration 0.001 mM): 105
Number of colonies ([6]; final concentration 0.001 mM, room temperature 15 minutes (0 mM: 303)): 319
colony forming unit ([6]; final concentration 0.01 mM): 1.25 × 10^8 CFU/mL
CFU relative value ([6]; final concentration 0.01 mM): 103
Number of colonies ([6]; final concentration 0.01 mM, room temperature 15 minutes): 313
colony forming unit ([6]; final concentration 0.1 mM): 6.04 × 10^7 CFU/mL
CFU relative value ([6]; final concentration 0.1 mM): 50
Number of colonies ([6]; final concentration 0.1 mM, room temperature 15 minutes): 151
colony forming unit ([6]; final concentration 1 mM): 0 CFU/mL
sterilization effect ([6]; final concentration 1 mM or more): ≥ 99%
CFU relative value ([6]; final concentration 1 mM): 0
Number of colonies ([6]; final concentration 1 mM, room temperature 15 minutes): 0
colony forming unit ([6]; final concentration 10 mM): 0 CFU/mL
CFU relative value ([6]; final concentration 10 mM): 0
Number of colonies ([6]; final concentration 10 mM, room temperature 15 minutes): 0
shift of fluorescence peak (binding amount between spike protein and ACE2) [7]: shifted to the left depending on the amount of AZADO-Oxo added

1,3-dimethyl AZADO
standard redox potential (E^0@25° C.) between the nitroxyl radical form and the oxoammonium form [8]: 136 mV

copper(II) nitrate
viable cell ratio [9]: did not decrease after 5 minutes from the addition
viable cell ratio [10]: did not decrease to 0%
viable cell ratio [11]: started to increase after 5 minutes from the addition

F[B-](F)(F)F.O=[N+]1C2CC3CC(C2)CC1C3 [AZADO^+BF4^−]
activity compared among the compounds (peak shift, MFI) [1]: almost equally strong
antiviral activity (MFI) on extended treatment time [1]: showed higher antiviral activity

CC12CC3CC(CC(C3)N1[O])C2 [1-methyl AZADO]
standard redox potential (E^0@25° C.) between the nitroxyl radical form and the oxoammonium form [8]: 186 mV

[O]N1C2CC3CC(C2)CC1C3 [AZADO, 2-azaadamantane-N-oxyl]
standard redox potential (E^0@25° C.) between the nitroxyl radical form and the oxoammonium form [8]: 236 mV

O=[N+]([O-])[O-].[Ag+] [silver nitrate, reference compound]
cell viability (WST-8 method) [2]: such a phenomenon was not observed

CC1(C)CCCC(C)(C)N1[O] [TEMPO, 2,2,6,6-tetramethylpiperidine-N-oxyl]
standard redox potential (E^0@25° C.) between the nitroxyl radical form and the oxoammonium form [8]: 294 mV
